Measured values as given in publication PMC7248975, “Sigma-1 Receptor Positron Emission Tomography: A New Molecular Imaging Approach Using (S)-(−)-[^18F]Fluspidine in Glioblastoma” (Molecules, 2020).

Assays:
sigma-1 receptor (sig1R) [1] = target: T1, sigma-1 receptor (sig1R) (Homo sapiens, UniProt Q99720); test: radioligand binding and displacement of (+)-[3H]pentazocine in U87-MG cells; autoradiography of tumour
T1 construct: gene SIGMAR1; U87-MG cells

sigma-1 receptor (sig1R) [2] = target: T2, sigma-1 receptor (sig1R) (Mus musculus, UniProt O55242); test: homologous radioligand displacement by autoradiography; PET in sig1R-knockout vs control mice
T2 construct: gene Sigmar1; mouse brain cryosections, contralateral striatum
T2 sequence (O55242 whole entry): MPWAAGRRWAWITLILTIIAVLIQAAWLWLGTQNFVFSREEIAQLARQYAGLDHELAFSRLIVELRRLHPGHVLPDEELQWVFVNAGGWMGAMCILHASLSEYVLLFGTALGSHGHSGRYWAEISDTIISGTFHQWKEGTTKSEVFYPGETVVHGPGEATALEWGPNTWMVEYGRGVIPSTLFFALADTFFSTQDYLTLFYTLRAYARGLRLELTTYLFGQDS

T1 sequence (Q99720 whole entry): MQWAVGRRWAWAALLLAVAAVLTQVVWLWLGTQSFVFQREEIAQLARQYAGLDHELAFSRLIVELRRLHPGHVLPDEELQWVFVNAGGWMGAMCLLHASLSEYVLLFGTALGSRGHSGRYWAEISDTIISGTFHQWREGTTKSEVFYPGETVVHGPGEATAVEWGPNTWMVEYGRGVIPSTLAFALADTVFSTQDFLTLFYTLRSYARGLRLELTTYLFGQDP

For `FCC[C@@H]1OC2(CCN(Cc3ccccc3)CC2)c2ccccc21` [(S)-(−)-[^18F]fluspidine], which Kd (sigma-1 receptor (sig1R) [1]) is on record?
The Kd was 16.7 nM.

And the Kd (sigma-1 receptor (sig1R) [2])?
Its Kd is 17 ± 4.8 nM.
